Legend:
[1] = tested on: SRS-A; test: Antagonistic action against SRS-A (SRS-A induced contraction of isolated guinea pig ileum); details: 3 U/ml SRS-A, 5 minutes incubation, tripelennamine and atropine in Tyrode solution
Experimental: The anti-SRS-A action of the compounds of this invention was evaluated using isolated guinea pig ileum. Short segments of guinea pig terminal ileum were suspended in Tyrode solution containing tripelennamine (3×10^-7 g/ml) and atropine (3×10^-7 g/ml) and their contractions induced by an addition to the organ bath of 3 U/ml SRS-A* were recorded. The ileum was again contracted after incubation with test compounds for 5 minutes by adding the same amount of SRS-A. The anti-SRS-A action is given in Table 6 as IC50 values which indicate the concentration of test compound required to inhibit SRS-A induced ileal contraction by 50%.
*: The SRS-A used in this experiment was prepared from anaphylactic guinea pig lungs. One unit of SRS-A refers to the amount required to produce a contraction of the guinea pig ileum equal in amplitude to that produced by 5 ng histamine base.

[2] = tested on: SRS-A-induced component of anaphylactic bronchoconstriction; test: Inhibitory activity on bronchial anaphylaxis in conscious guinea pigs (SRS-A preferentially involved in bronchoconstriction); type: in vivo, guinea pig; details: Cavia porcellus; oral; actively sensitized (egg albumin) conscious guinea pigs, 10 mg/kg diphenhydramine intraperitoneally, inhaled antigen; read-out: ED75 (oral dose required to protect 75% of animals from respiratory distress caused by antigen challenge)
Experimental: The effect of the compounds of this invention on bronchial anaphylactic reaction in vivo was evaluated using conscious guinea pigs in a condition where SRS-A was preferentially involved in bronchoconstriction (Boot, J. R. et al.: Int. Arch. Allergy Appl. Immunol. 67, 340 (1982)). The guinea pigs which had been sensitized actively with egg albumin 3 to 4 weeks prior were given intraperitoneally with 10 mg/kg diphenhydramine. In these animals, inhaled antigen caused a marked respiratory distress due to bronchoconstriction. The ED75 values in Table 7 indicate the oral dose of test compound required to protect 75% of animals from respiratory distress caused by antigen challenge.

Row | SMILES | Antagonistic activity against SRS-A IC50 [1] [µg/mL] | ED75 [2] [mg/kg]
1 | Cn1c(=O)c2[nH]cnc2n(C)c1=O [Aminophylline, reference compound] |  | 3.5
2 | C=CCOC(CCC)(c1c(C(C)C)nn2ccccc12)C(C)C (centres unmarked) [Example 32] | 0.52 | 2
3 | CCCCC(O)(c1c(C(C)C)nn2ccccc12)C(C)C (centres unmarked) [Example 18] | 0.84 | 0.5
4 | CCC(O)(c1c(C(C)C)nn2ccccc12)C(C)C (centres unmarked) [Example 15, 2-Isopropyl-3-(1-hydroxy-1-ethyl-2-methylpropyl)pyrazolo[1,5-a]pyridine] | 1.75 | 0.68
5 | COC(c1c(C(C)C)nn2cc(C)ccc12)C(C)C (centres unmarked) [Example 26] | 18.4 | 
6 | CCOC(c1c(C(C)C)nn2ccccc12)C(C)C (centres unmarked) [Example 22] | 7.2 | 
7 | Cc1nn2ccccc2c1C(O)C(C)C (centres unmarked) [Example 10] | 10.3 | 
8 | CCC(OC)(c1c(C(C)C)nn2ccccc12)C(C)C (centres unmarked) [Example 30] | 1.52 | 1
9 | CC(C)=Cc1c(C(C)C)nn2ccccc12 [Example 40] | 2.7 | 
10 | CC(C)c1nn2ccccc2c1C(O)C(C)C (centres unmarked) [Example 5, 2-Isopropyl-3-(1-hydroxy-2-methylpropyl)pyrazolo[1,5-a]pyridine] | 1.75 | 0.48
11 | CCC(O)c1c(C(C)C)nn2ccccc12 (centres unmarked) [Example 8, 2-isopropyl-3-(1-hydroxypropyl)pyrazolo[1,5-a]pyridine] | 27 | 
12 | C=CCOC(CCCC)(c1c(C(C)C)nn2ccccc12)C(C)C (centres unmarked) [Example 33] | 2.36 | 
13 | CC=C(c1c(C(C)C)nn2ccccc12)C(C)C [Example 42] | 0.44 | 
14 | CCCCCCC(O)(c1c(C(C)C)nn2ccccc12)C(C)C (centres unmarked) [Example 19] | 2.14 | 
15 | C=CCC(O)(c1c(C(C)C)nn2ccccc12)C(C)C (centres unmarked) [Example 20] | 1.51 | 0.5
16 | CC(C)c1nn2ccccc2c1C(C)(O)C(C)C (centres unmarked) [Example 16] | 23.5 | 
17 | CCCOC(CC)(c1c(C(C)C)nn2ccccc12)C(C)C (centres unmarked) [Example 35, 2-Isopropyl-3-(1-ethyl-1-propoxy-2-methylpropyl)pyrazolo[1,5-a]pyridine] | 1.23 | 0.5
18 | C=C(c1c(C(C)C)nn2ccccc12)C(C)C [Example 41] | 2.45 | 

Second part, led by results:

Row | Antagonistic activity against SRS-A IC50 [1] [µg/mL] | SMILES | ED75 [2] [mg/kg]
19 | 14.9 | CC(O)COC(c1c(C(C)C)nn2ccccc12)C(C)C (centres unmarked) [Example 36, 2-Isopropyl-3-[1-(2-hydroxypropoxy)-2-methylpropyl]pyrazolo[1,5-a]pyridine] | 
20 | 1.6 | CC(C)c1nn2ccccc2c1C(C)C(C)C (centres unmarked) [Example 44] | 0.5
21 | 5.09 | CCCOC(c1c(C(C)C)nn2ccccc12)C(C)C (centres unmarked) [Example 24] | 
22 | 6.6 | COC(c1c(C(C)C)nn2ccccc12)C(C)C (centres unmarked) [Example 21, 2-Isopropyl-3-(1-methoxy-2-methylpropyl)pyrazolo[1,5-a]pyridine] | 0.36
23 | 3.93 | C=CCOC(c1c(C(C)C)nn2cc(C)ccc12)C(C)C (centres unmarked) [Example 27] | 
24 | 2.03 | CCCC(O)(c1c(C(C)C)nn2ccccc12)C(C)C (centres unmarked) [Example 17] | 0.75
25 | 3.84 | C=CCOC(c1c(C(C)C)nn2cc(OC)ccc12)C(C)C (centres unmarked) [Example 29] | 
26 | 14.7 | COCc1c(C(C)C)nn2ccccc12 [Example 37, 2-Isopropyl-3-methoxymethylpyrazolo[1,5-a]pyridine] | 
27 | 1.06 | C=CCOC(c1c(C(C)C)nn2ccccc12)C(C)C (centres unmarked) [Example 23] | 0.5
28 | 9.98 | CCCCOC(c1c(C(C)C)nn2ccccc12)C(C)C (centres unmarked) [Example 25] | 
29 | 16.4 | CCCc1nn2ccccc2c1C(O)CCC (centres unmarked) [Example 11] | 
30 | 7.36 | COc1ccc2c(C(OC)C(C)C)c(C(C)C)nn2c1 (centres unmarked) [Example 28] | 
31 | 2.7 | CC(C)Cc1c(C(C)C)nn2ccccc12 [Example 43] | 
32 | 0.27 | C=CCOC(CC)(c1c(C(C)C)nn2ccccc12)C(C)C (centres unmarked) [Example 31, 2-isopropyl-3-(1-allyloxy-1-ethyl-2-methylpropyl)pyrazolo[1,5-a]pyridine] | 0.5
33 | 10.3 | CC(C)c1nn2ccccc2c1C(O)C1CCCC1 (centres unmarked) [Example 6] | 
34 | 26.8 | CCCC(O)c1c(C(C)C)nn2ccccc12 (centres unmarked) [Example 9] | 
35 | 2.8 | CCCc1c(C(C)C)nn2ccccc12 [Example 39, 2-Isopropyl-3-propylpyrazolo[1,5-a]pyridine] | 
36 | 7.33 | CC(C)c1nn2ccccc2c1C(OCC1CO1)C(C)C (centres unmarked) [Example 34, 2-isopropyl-3-[1-(2,3-epoxypropoxy)-2-methylpropyl]pyrazolo[1,5-a]pyridine] | 
37 | 4.9 | COc1ccc2c(C(O)C(C)C)c(C(C)C)nn2c1 (centres unmarked) [Example 13] | 0.5
